Legend:
IL-6 [1] = test: Clinical phase II study: IL-6 plasma concentration; assay type: in vivo, human
Procedure: (§1) In a clinical phase II study 119 patients with persistent atrial fibrillation were investigated with regard to the effect of treatment with Compound-02 (structure of general formula (VI)). The patients were divided into a placebo group and three treatment groups with different dosing of Compound-02. The low, medium and high dosing groups received an oral once daily dosing of 4 mg, 12 mg or 24 mg of Compound-02, respectively.
(§2) The study participants received an implantable cardiac monitor (ICM) at least one week prior to start of treatment with Compound-02. The treatment with Compound-02 was maintained for a total period of three months (i.e. Day 1 to Day 99) and started at least 1 week prior to direct current cardioversion (DCC) (see FIG. 1 for details of study protocol).
(§3) Plasma samples were taken from the patients at different study visits. Biomarkers were analyzed at baseline (V3) and at the end of treatment (V8). For 119 study participants complete sets of biomarkers could be obtained.

GDF-15 = test: Clinical phase II study: GDF-15 plasma concentration (sandwich ELISA); assay type: in vivo, human; details: baseline to end-of-treatment (3 months); dose-dependent
Procedure: as §1, §2, §3
GDF-15 concentrations were measured in EDTA treated plasma samples with a solid phase sandwich ELISA (Human GDF-15 Quantikine ELISA kit, R&D Systems) using an immobilized mouse monoclonal anti-GDF-15 and a horseradish peroxidase-conjugated monoclonal anti-GDF-15 antibody. […] The reaction product is measured spectrophotometrically at 450 nm (Sunrise Absorbance Reader, TECAN).

PTX-3 = test: Clinical phase II study: PTX-3 plasma concentration; assay type: in vivo, human; details: baseline to end-of-treatment (3 months); dose-dependent
Procedure: as §1, §2, §3

[2] = tested on: patients with persistent atrial fibrillation; test: Clinical phase II study: safety; assay type: in vivo, human; details: oral once daily 4, 12 or 24 mg, three months
Procedure: as §1, §2

[3] = tested on: patients suffering from CAD; details: CANTOS study patients with reduced circulating IL-6 levels; cited from earlier work
IL-6 [4] = details: CANTOS study, 4833 CAD patients; cited from earlier work

Compound | reduction of IL-6 plasma concentration vs. placebo (IL-6 [1]; baseline to end-of-treatment (3 months), dose-dependent) [%] | reduction of IL-6 levels in response to treatment (IL-6 [1]; clinical study) | reduction of GDF-15 plasma concentration vs. placebo (GDF-15) [%] | reduction of PTX-3 plasma concentration vs. placebo (PTX-3) [%] | changes in the ECG or other types of arrhythmias [2] | safety profile [2] | reduction in major adverse cardiac events (MACE) compared to the placebo group [3] [%] | circulating IL-6 levels (IL-6 [4])
CNC(=O)C(=O)NCCCC/C=C\CCCCCCCOCC(=O)O [Compound-02] | 30 | 25-40% | 30 | 55 | no changes | good safety profile |  | 
Canakinumab: anti-IL-1β antibody that modulates the IL-6 pathway |  |  |  |  |  |  | 32 | reduces circulating IL-6 levels

Source: patent US20250319054A1, “Synthetic Eicosanoid Analogues for the Treatment and Prevention of Diseases Associated with Increased GDF15 Plasma Concentration” (OMEICOS Therapeutics GmbH, priority 2021, published 2025)
